Our source for the IC50 values is ChEMBL document CHEMBL1135401, “Pharmacophore mapping of a series of 2,4-diamino-5-deazapteridine inhibitors of Mycobacterium avium complex dihydrofolate reductase” (J Med Chem, 2002).

In experiment [1] the target is T1, Dihydrofolate reductase (Mycobacterium avium, UniProt O30463).
T1 sequence (O30463 whole entry): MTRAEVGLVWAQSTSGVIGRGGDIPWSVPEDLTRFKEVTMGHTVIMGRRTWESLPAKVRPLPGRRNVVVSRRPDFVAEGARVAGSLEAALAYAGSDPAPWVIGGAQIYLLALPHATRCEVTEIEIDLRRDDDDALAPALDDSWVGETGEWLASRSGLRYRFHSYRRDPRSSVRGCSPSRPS
As to the kind of experiment: Antimycobacterial activity against Mycobacterium avium complex dihydrofolate reductase (MAC DHFR).

For experiment [2], the target named is T2, Dihydrofolate reductase (Homo sapiens, UniProt P00374).
T2 sequence (P00374 whole entry): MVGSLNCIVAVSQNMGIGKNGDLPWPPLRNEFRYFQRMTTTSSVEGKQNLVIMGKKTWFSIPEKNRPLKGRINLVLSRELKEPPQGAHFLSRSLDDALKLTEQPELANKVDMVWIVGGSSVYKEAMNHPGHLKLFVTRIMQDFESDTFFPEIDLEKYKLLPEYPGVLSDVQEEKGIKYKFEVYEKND
As to the kind of experiment: Antimycobacterial activity against human dihydrofolate reductase (hDHFR).

Each structure is given as a SMILES string.

Broadly, the IC50 is the point on the concentration scale where inhibition reaches its midpoint. A low value points to inhibition by little substance. Regarding `COc1cc(NCc2cnc3nc(N)nc(N)c3c2C)cc(OC)c1OC`, the values for the concentration for half-maximal inhibition (IC50) against Dihydrofolate reductase [1] and at Dihydrofolate reductase [2] were 0.82 nM and 4.7 nM, respectively. On to `COc1cccc(SCc2cnc3nc(N)nc(N)c3c2C)c1`, for which the figures for the IC50 at Dihydrofolate reductase [1] and against Dihydrofolate reductase [2] were 2.7 nM and 500 nM, respectively. Take `Cc1c(CNC2c3ccccc3-c3ccccc32)cnc2nc(N)nc(N)c12`: the half-inhibitory concentration (IC50) against Dihydrofolate reductase [1] turned out to be 320 nM; at Dihydrofolate reductase [2], 5300 nM. `CCOc1ccc(OCC)c(NCc2cnc3nc(N)nc(N)c3c2C)c1` displayed an IC50 against Dihydrofolate reductase [2] of 2300 nM. In other words, the single-digit micromolar range.

On to `Cc1c(CNc2cc(Br)ccc2Br)cnc2nc(N)nc(N)c12`, for which the values for the 50% inhibitory concentration (IC50) on Dihydrofolate reductase [1] and against Dihydrofolate reductase [2] were 0.7 nM and 4.6 nM, respectively. In the case of `Cc1c(CNc2ccc3ncccc3c2)cnc2nc(N)nc(N)c12`, the figures for the IC50 at Dihydrofolate reductase [1] and on Dihydrofolate reductase [2] were 0.95 nM and 7.1 nM, respectively. Consider `Cc1c(CSc2cccc(Cl)c2)cnc2nc(N)nc(N)c12`, for which the figures for the IC50 at Dihydrofolate reductase [1] and against Dihydrofolate reductase [2] were 3.9 nM and 420 nM, respectively. For `Cc1c(CNc2ccc3c4c(cccc24)-c2ccccc2-3)cnc2nc(N)nc(N)c12`, the results for the 50% inhibitory concentration (IC50) at Dihydrofolate reductase [1] and against Dihydrofolate reductase [2] were 1 nM and 6.2 nM, respectively. As to `Cc1c(CNc2c3ccccc3cc3ccccc23)cnc2nc(N)nc(N)c12`, 620 nM corresponded to half-maximal inhibition against Dihydrofolate reductase [1] (IC50). For the molecule `COc1ccc(NCc2cnc3nc(N)nc(N)c3c2C)cc1OC`, the IC50 at Dihydrofolate reductase [1] amounted to 0.7 nM; at Dihydrofolate reductase [2] it was 5.1 nM.

`COc1cc(NCc2cnc3nc(N)nc(N)c3c2)cc(OC)c1OC`: the concentration for half-maximal inhibition (IC50) against Dihydrofolate reductase [1] is 240 nM; against Dihydrofolate reductase [2], 3900 nM. The matching figures for `Cc1ccc(F)c(NCc2cnc3nc(N)nc(N)c3c2C)c1`: 1.1 nM and 250 nM.

In the case of `Cc1c(CNc2cccc3ncccc23)cnc2nc(N)nc(N)c12`, the figures for the concentration for half-maximal inhibition (IC50) against Dihydrofolate reductase [1] and against Dihydrofolate reductase [2] were 0.98 nM and 4.3 nM, respectively. In the case of `Cc1c(CNC2CCCc3ccccc32)cnc2nc(N)nc(N)c12` (stereo unspecified), the IC50 against Dihydrofolate reductase [1] amounted to 280 nM; on Dihydrofolate reductase [2], 3400 nM. The corresponding values for `COc1cc(-c2ccccc2)ccc1NCc1cnc2nc(N)nc(N)c2c1C` are 0.91 nM and 68 nM. As for `Cc1c(CNc2ccc3ccccc3c2)cnc2nc(N)nc(N)c12`, the half-maximal inhibitory concentration (IC50) against Dihydrofolate reductase [1] turned out to be 0.76 nM; against Dihydrofolate reductase [2], 10 nM.

As for `Cc1c(CSc2cccc3ccccc23)cnc2nc(N)nc(N)c12`, the results for the half-inhibitory concentration (IC50) against Dihydrofolate reductase [1] and at Dihydrofolate reductase [2] were 4.6 nM and 440 nM, respectively. Take `Cc1c(CNc2ccc(Cl)c3ccccc23)cnc2nc(N)nc(N)c12`: the IC50 against Dihydrofolate reductase [1] came to 0.43 nM; on Dihydrofolate reductase [2], 2 nM. Regarding `Cc1cccc(SCc2cnc3nc(N)nc(N)c3c2C)c1`, the IC50 turned out to be 16 nM on Dihydrofolate reductase [1] and 850 nM on Dihydrofolate reductase [2].

On to `Cc1c(Cl)cccc1NCc1cnc2nc(N)nc(N)c2c1C`, for which the figures for the IC50 at Dihydrofolate reductase [1] and against Dihydrofolate reductase [2] were 0.82 nM and 5.2 nM, respectively. The matching figures for `Cc1cc(Br)ccc1NCc1cnc2nc(N)nc(N)c2c1C`: 0.85 nM and 5.9 nM. As for `CCCOc1ccc(OCCC)c(NCc2cnc3nc(N)nc(N)c3c2C)c1`, the 50% inhibitory concentration (IC50) on Dihydrofolate reductase [1] stood at 1 nM; on Dihydrofolate reductase [2], 7300 nM.

For the molecule `Cc1c(CNc2ccc(OC(F)F)cc2)cnc2nc(N)nc(N)c12`, the IC50 against Dihydrofolate reductase [1] came to 1.1 nM; against Dihydrofolate reductase [2], 20 nM.

With `Cc1c(CNc2cc(Cl)ccc2Cl)cnc2nc(N)nc(N)c12`, the IC50 came to 0.89 nM against Dihydrofolate reductase [1] and 8 nM against Dihydrofolate reductase [2].

On to `COc1ccc(OC)c(CCc2cnc3nc(N)nc(N)c3c2C)c1`, for which the figures for the half-inhibitory concentration (IC50) on Dihydrofolate reductase [1] and at Dihydrofolate reductase [2] were 47 nM and 2700 nM, respectively. As to `COc1ccc(C(F)(F)F)cc1N(C)Cc1cnc2nc(N)nc(N)c2c1C`, the results for the IC50 on Dihydrofolate reductase [1] and against Dihydrofolate reductase [2] were 1.2 nM and 36 nM, respectively. Take `Nc1nc(N)c2cc(CNc3ccc(Cl)cc3)cnc2n1`: the 50% inhibitory concentration (IC50) against Dihydrofolate reductase [1] is 73 nM; against Dihydrofolate reductase [2], 670 nM.

Take `Cc1ccc(NCc2cnc3nc(N)nc(N)c3c2C)cc1Cl`: the IC50 against Dihydrofolate reductase [1] was 0.9 nM; against Dihydrofolate reductase [2] it was 6.7 nM. The corresponding values for `Cc1c(CNc2cc(C(F)(F)F)ccc2Br)cnc2nc(N)nc(N)c12` are 0.82 nM and 3.2 nM.

As for `Cc1ccc(Cl)c(NCc2cnc3nc(N)nc(N)c3c2C)c1`, the concentration for half-maximal inhibition (IC50) was 0.95 nM on Dihydrofolate reductase [1] and 44 nM against Dihydrofolate reductase [2].

In the case of `Cc1c(CNc2ccccc2Cl)cnc2nc(N)nc(N)c12`, the IC50 against Dihydrofolate reductase [1] stood at 0.91 nM; on Dihydrofolate reductase [2], 120 nM.

For `Nc1nc(N)c2cc(CNc3cccc4ccccc34)cnc2n1`, the IC50 came out at 86 nM against Dihydrofolate reductase [1] and 820 nM against Dihydrofolate reductase [2]. The matching figures for `Cc1c(CNc2ccc(Cl)c(Cl)c2)cnc2nc(N)nc(N)c12`: 0.92 nM and 5 nM. With `Cc1ccc(F)cc1NCc1cnc2nc(N)nc(N)c2c1C`, the IC50 against Dihydrofolate reductase [1] turned out to be 0.85 nM; on Dihydrofolate reductase [2] it was 19 nM. On to `Cc1ccc(C)c(NCc2cnc3nc(N)nc(N)c3c2C)c1`, for which the results for the half-inhibitory concentration (IC50) against Dihydrofolate reductase [1] and against Dihydrofolate reductase [2] were 0.92 nM and 57 nM, respectively. As for `Cc1ccc(Cl)cc1NCc1cnc2nc(N)nc(N)c2c1C`, the values for the IC50 on Dihydrofolate reductase [1] and against Dihydrofolate reductase [2] were 0.79 nM and 6.1 nM, respectively. As for `COc1ccc(C)cc1NCc1cnc2nc(N)nc(N)c2c1C`, the values for the IC50 against Dihydrofolate reductase [1] and against Dihydrofolate reductase [2] were 0.86 nM and 300 nM, respectively. With `Cc1c(CNc2cccc(Cl)c2)cnc2nc(N)nc(N)c12`, the IC50 against Dihydrofolate reductase [1] turned out to be 0.82 nM; on Dihydrofolate reductase [2], 17 nM. Take `CCOc1ccc(NCc2cnc3nc(N)nc(N)c3c2C)cc1OC`: the half-maximal inhibitory concentration (IC50) at Dihydrofolate reductase [1] is 1.1 nM; at Dihydrofolate reductase [2], 18 nM. With `Cc1c(CSc2ccc(Cl)cc2)cnc2nc(N)nc(N)c12`, the concentration for half-maximal inhibition (IC50) against Dihydrofolate reductase [1] was determined as 3.6 nM; against Dihydrofolate reductase [2], 590 nM. Turning to `Cc1c(CN(C)c2cccc3c2CCCC3)cnc2nc(N)nc(N)c12`, the IC50 came out at 1.9 nM against Dihydrofolate reductase [1] and 710 nM at Dihydrofolate reductase [2]. As to `Cc1c(CNc2ccc3ccc4cccc5ccc2c3c45)cnc2nc(N)nc(N)c12`, the 50% inhibitory concentration (IC50) at Dihydrofolate reductase [1] was 0.88 nM; against Dihydrofolate reductase [2], 3.8 nM.

For `COc1cc(Cl)c(C)cc1NCc1cnc2nc(N)nc(N)c2c1C`, the figures for the concentration for half-maximal inhibition (IC50) at Dihydrofolate reductase [1] and at Dihydrofolate reductase [2] were 0.94 nM and 10 nM, respectively.

On to `COc1cc(NCc2cnc3nc(N)nc(N)c3c2C)cc(C(F)(F)F)c1`, for which the IC50 was determined as 0.93 nM against Dihydrofolate reductase [1] and 5.5 nM against Dihydrofolate reductase [2]. The corresponding values for `Cc1c(CNc2cnc3ccccc3c2)cnc2nc(N)nc(N)c12` are 1.2 nM and 12 nM. As for `Cc1c(CNc2ccccc2OC(F)F)cnc2nc(N)nc(N)c12`, the IC50 at Dihydrofolate reductase [1] was found to be 0.87 nM; against Dihydrofolate reductase [2], 277 nM. Consider `Cc1c(CNc2ccc3c(c2)Cc2ccccc2-3)cnc2nc(N)nc(N)c12`, for which the IC50 on Dihydrofolate reductase [1] was found to be 0.86 nM; at Dihydrofolate reductase [2], 6.7 nM. Regarding `COCc1c(CNc2ccc(OC)c(OC)c2)cnc2nc(N)nc(N)c12`, the half-inhibitory concentration (IC50) at Dihydrofolate reductase [1] came to 1200 nM; at Dihydrofolate reductase [2] it was 6100 nM. As for `Cc1ccc(NCc2cnc3nc(N)nc(N)c3c2C)cc1Br`, the IC50 at Dihydrofolate reductase [1] stood at 0.6 nM; against Dihydrofolate reductase [2], 3.7 nM. As to `Cc1c(CNc2cc(F)ccc2F)cnc2nc(N)nc(N)c12`, the half-maximal inhibitory concentration (IC50) on Dihydrofolate reductase [1] was 0.9 nM; against Dihydrofolate reductase [2] it was 69 nM.

Take `COCc1c(CNc2ccc(Cl)cc2)cnc2nc(N)nc(N)c12`: half-maximal inhibition on Dihydrofolate reductase [2] (IC50) was put at 2600 nM.

Take `Cc1cc(Br)cc(C)c1NCc1cnc2nc(N)nc(N)c2c1C`: the half-inhibitory concentration (IC50) on Dihydrofolate reductase [1] stood at 5.3 nM; against Dihydrofolate reductase [2] it was 1900 nM. `CCOc1ccc(OCC)c(N(C)Cc2cnc3nc(N)nc(N)c3c2C)c1`: the figures for the IC50 against Dihydrofolate reductase [1] and on Dihydrofolate reductase [2] were 1.4 nM and 1000 nM, respectively. With `COc1ccc(NCc2cnc3nc(N)nc(N)c3c2C)cc1F`, the IC50 amounted to 0.91 nM against Dihydrofolate reductase [1] and 14 nM against Dihydrofolate reductase [2]. For the molecule `Cc1cc(Cl)ccc1NCc1cnc2nc(N)nc(N)c2c1C`, on Dihydrofolate reductase [2], the midpoint of inhibition, the IC50, lay at 2.8 nM.
